A value given as a limit tells only on which side of the number the result lay.

Assay [1] has as its target T1, USP28 (Homo sapiens, UniProt Q96RU2).
T1 sequence (Q96RU2 1-1077): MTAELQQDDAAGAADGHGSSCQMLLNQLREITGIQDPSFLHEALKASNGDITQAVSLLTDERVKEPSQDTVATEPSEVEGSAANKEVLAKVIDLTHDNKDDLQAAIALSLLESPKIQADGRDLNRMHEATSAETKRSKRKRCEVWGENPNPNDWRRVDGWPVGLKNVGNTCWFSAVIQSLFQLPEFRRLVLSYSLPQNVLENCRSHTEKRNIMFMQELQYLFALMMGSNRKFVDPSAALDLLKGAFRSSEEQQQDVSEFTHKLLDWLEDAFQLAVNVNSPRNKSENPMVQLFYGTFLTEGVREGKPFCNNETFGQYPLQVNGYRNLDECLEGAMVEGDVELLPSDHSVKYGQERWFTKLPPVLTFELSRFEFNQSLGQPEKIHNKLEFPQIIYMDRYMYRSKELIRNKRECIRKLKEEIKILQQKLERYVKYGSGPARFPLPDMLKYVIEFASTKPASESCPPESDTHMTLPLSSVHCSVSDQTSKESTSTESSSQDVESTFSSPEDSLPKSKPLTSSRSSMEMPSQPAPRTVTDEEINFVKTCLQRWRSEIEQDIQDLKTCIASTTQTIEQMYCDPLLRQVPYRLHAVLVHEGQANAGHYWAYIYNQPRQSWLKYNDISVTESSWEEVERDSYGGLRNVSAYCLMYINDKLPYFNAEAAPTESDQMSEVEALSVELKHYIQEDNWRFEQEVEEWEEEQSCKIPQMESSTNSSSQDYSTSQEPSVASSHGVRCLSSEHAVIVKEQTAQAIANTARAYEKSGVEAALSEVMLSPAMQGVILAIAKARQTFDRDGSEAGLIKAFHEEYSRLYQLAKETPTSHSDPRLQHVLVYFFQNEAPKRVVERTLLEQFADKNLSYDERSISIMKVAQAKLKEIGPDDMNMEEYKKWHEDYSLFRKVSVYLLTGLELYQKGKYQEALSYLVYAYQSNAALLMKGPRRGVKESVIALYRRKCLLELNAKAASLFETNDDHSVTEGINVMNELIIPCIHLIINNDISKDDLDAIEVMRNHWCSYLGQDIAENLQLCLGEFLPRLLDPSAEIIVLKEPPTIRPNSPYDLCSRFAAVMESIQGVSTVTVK
In words: Ubiquitin-Rhodamine110 assay. It counts as biochemical. To be noted: USP28 at 1 nM, 30 minutes pre-incubation at room temperature, Ubiquitin-Rho110 125 nM. As to the method:
USP28 (at 1 nM) was pre-incubated with different concentrations of inhibitors or DMSO as a control in 50 mM Tris pH 8, 50 mM NaCl, 0.002% Tween-20, 5 mM DTT. Compounds and protein were incubated for 30 minutes at room temperature prior to the addition of Ubiquitin-Rho110 (Boston Biochem) substrate for a final concentration of 125 nM. The initial rate of the reaction was measured by collecting fluorescence data at one-minute interval over 30-minute period using a Clariostar® fluorescence plate reader at excitation and emission wavelength of 485 nm and 535 nm, respectively. The calculated initial rate values were plotted against inhibitor concentrations to determine IC50s. All the experimental data were plotted using GraphPad Prism®.

The target in assay [2] is T1, USP28. In words: Competitive activity-based protein profiling (target engagement, Ub-VME probe, Western blot). The class given is binding. To be noted: K562 cells lysed, treated with compound for 1 h followed by Ub-VME; Western blot (FIG. 3). As for the experimental part:
K562 cells were lysed and treated with indicated concentrations of compound 8 for 1 h followed by incubation with Ub-VME. Ub-VME covalently modifies USP28, resulting in higher MW band observed by Western blot.
Cells were pelleted, washed with PBS buffer, lysed on ice (20 mM Tris pH 8, 150 mM NaCl, 1% NP-40, 10% glycerol, 1 mM TCEP, phosphatase inhibitor cocktails (Sigma P5726 and Calbiochem 524624), and protease inhibitors (pepstatin, leupeptin, PMSF, and aprotinin), and clarified by centrifugation. Protein content was quantified by BCA and diluted to 2 mg/mL in lysis buffer. Compounds were added at desired concentrations and incubated at room temperature for 30 minutes. Samples were then supplemented with 2 uM HA-Ub-VS and incubated at room temperature with shaking for 15 minutes. Reactions were quenched with 4×LDS sample buffer (Thermo Fisher B0007) supplemented with 10% BME, vortexed vigorously, and heated to 95° C. for 5 minutes. Samples were resolved by SDS-PAGE and analyzed by Western blot with the indicated antibodies.

With `Nc1ccc(Cc2nc(-c3ccc(Cl)nc3)no2)cc1` [Compound 30], the half-inhibitory concentration (IC50) (usually the concentration that gives 50% inhibition) against USP28 [1] is 10 to 100 µM. For `O=C(O)c1cccc(-c2noc(Cc3ccc(Cl)c(Cl)c3)n2)c1` [Compound 18], the IC50 against USP28 [1] fell in the range of 10 to 100 µM. `Clc1ccc(-c2noc(Cc3cccc4ccccc34)n2)cn1` [Compound 23] came in with an IC50 against USP28 [1] of 1 to 10 µM. `O=c1ccc(-c2noc(Cc3cc(F)cc(F)c3)n2)c[nH]1` [Compound 16] had an IC50 against USP28 [1] of 1 to 10 µM. On to `O=c1ccc(-c2noc(Cc3ccc(Cl)c(Cl)c3)n2)cn1Cc1ccccc1` [Compound 10], for which, on USP28 [1], the IC50 lay in the range of 1 to 10 µM.

`O=C(O)c1ccc(Cc2noc(Cc3ccc(Cl)c(Cl)c3)n2)cc1` [Compound 15] displayed an IC50 against USP28 [1] of 10 to 100 µM.

Turning to `CCC(c1ccccc1)c1nc(-c2ccc(=O)[nH]c2)no1` (centres unmarked) [Compound 21], the IC50 against USP28 [1] was above 100 µM.

Take `O=[N+]([O-])c1cc(Cc2nc(-c3ccc(Cl)nc3)no2)ccc1Cl` [Compound 31]: on USP28 [1], the IC50 lay within 1 to 10 µM. As to `c1ccc(-c2nc(-c3cccnc3)no2)nc1` [Compound 2], the IC50 against USP28 [1] is above 100 µM. On the same count and under the same terms, the result for `CCC(c1ccccc1)c1nc(-c2ccc(Cl)nc2)no1` (centres unmarked) [Compound 20] reads above 100 µM. Same read-out and setting: the result for `c1ccc2cc(Cc3nc(-c4ccncc4)no3)ccc2c1` [Compound 1] reads 1 to 10 µM. As to `COC(=O)c1ccc(Cc2noc(Cc3ccc(Cl)c(Cl)c3)n2)cc1` [Compound 14], the IC50 against USP28 [1] was above 100 µM. Same read-out and setting: then `O=c1ccc(-c2nc(-c3ccc(OC(F)(F)F)cc3)no2)cn1Cc1ccnc(Cl)c1` [Compound 11], with above 100 µM; and `O=c1ccc(-c2noc(Cc3ccc(Cl)cc3)n2)c[nH]1` [Compound 4], with 1 to 10 µM; and `O=c1ccc(-c2noc(Cc3ccccc3)n2)c[nH]1` [Compound 7], with 1 to 10 µM. As to `Nc1ccc(-c2noc(Cc3ccc(Cl)c(Cl)c3)n2)cn1` [Compound 19], at USP28 [1], the IC50 is below 1 µM. The same measure, in the same setting: the result for `CN(C)c1ccc(-c2noc(Cc3ccc(Cl)c(Cl)c3)n2)cn1` [Compound 13] reads above 100 µM. In turn, `Clc1ccc(-c2noc(Cc3ccccc3)n2)cn1` [Compound 6] gave an IC50 on USP28 [1] below 1 µM. In turn, `Clc1ccc(-c2noc(Cc3ccc(Cl)c(Cl)c3)n2)cn1` [Compound 5] gave an IC50 on USP28 [1] below 1 µM.

`Clc1ccc(-c2noc(Cc3ccc4ccccc4c3)n2)cn1` [Compound 22] registered an IC50 against USP28 [1] below 1 µM. For the compound `N[C@@H](Cc1ccccc1)c1nc(-c2ccc(=O)[nH]c2)no1` [Compound 17], the IC50 at USP28 [1] was above 100 µM. With `O=c1ccc(-c2noc(Cc3cccc(Cl)c3)n2)c[nH]1` [Compound 28], the IC50 against USP28 [1] is below 1 µM.

At USP28 [1], `O=C(Nc1ccc(-c2noc(Cc3ccc(Cl)c(Cl)c3)n2)cn1)[C@H]1CCNC1` [Compound 32] gave an IC50 of 1 to 10 µM.

`O=c1ccc(-c2nc(Cc3ccc(Cl)c(Cl)c3)no2)c[nH]1` [Compound 9]: the IC50 at USP28 [1] lay in the range of 1 to 10 µM. For `Clc1cccc(Cc2nc(-c3ccc(Cl)nc3)no2)c1` [Compound 29], at USP28 [1], the IC50 lay within 1 to 10 µM. Consider `O=c1ccc(-c2noc(Cc3ccc(Cl)c(Cl)c3)n2)c[nH]1` [Compound 8], for which the IC50 at USP28 [1] is below 1 µM. Moreover, the “labeling of USP28 by covalent Ub-VME probe (target engagement)” value on USP28 [2] is given as “prevents labeling of USP28 by the covalent Ub-VME probe”.

Turning to `Clc1ccc(Cc2nc(-c3ccc(Cl)nc3)no2)cc1` [Compound 3], on USP28 [1], the IC50 was in the range of 1 to 10 µM.

Compound `CN1CCN(c2cc(Cn3cc(-c4nc(-c5ccc(OC(F)(F)F)cc5)no4)ccc3=O)ccn2)CC1` [Compound 12] registered an IC50 against USP28 [1] above 100 µM.

These data come from patent US20230265082A1, “SUBSTITUTED 1,2,4-OXADIAZOLES AS SMALL MOLECULE INHIBITORS OF UBIQUITIN-SPECIFIC PROTEASE 28” (Dana-Farber Cancer Institute, Inc., priority 2020, published 2023).
